{"source": "patent US7232837B2", "about": "“Stereoisomers with high affinity for adrenergic receptors” (McNeil-PPC, Inc., priority 1999, dated 2007)", "key": {"[1]": {"test_system": "New Zealand white rabbits", "assay": "Intraocular pressure (IOP) after topical application to the rabbit eye", "format": "in vivo", "details": "for IOP: mean ± S.E.", "method": "(§1) These diastereomers were administered topically as either 1% or 2% solutions in buffered saline. Pupillary diameter and IOP were measured in all animals over a six hour time period during the day to minimize diurnal variations in IOP and pupil diameter.\n(§2) The experiments were performed on adult male New Zealand white rabbits weighing 3.0–6.0 kg. All rabbits were caged individually and maintained on a 12 hr/12 hr light/dark schedule with free access to food and water. All animal procedures were in conformity with the ARVO Resolution on the Use and Care of Animals in Research. All treated rabbits had served as controls by having received a saline treatment on a different day.\n(§3) Only one eye received drug treatment. The contralateral eye served as a control. Saline (or PBS) and drug treated rabbits were treated and observed simultaneously. A single dose was given at time zero and IOP and pupil diameter measured at −1.0, −0.5, 0.5, 1, 3 and 5 hrs post-treatment.\nIOP measurements were recorded with an Alcon Applanation Pneumotonograph (Surgical Products Division, Alcon Laboratories, Inc., Ft. Worth, Tex.) in rabbits placed in Lucite restraining cages. Initial topical application of a two drop 0.5% proparacaine HCl (Ophthetic®, Allergan Pharmaceuticals, Inc.) was performed on each rabbit.\n(§4) Mean and Standard Error values were used to construct time-response and dose-response curves for the treated and contralateral eye of research rabbits. The data were analyzed statistically by an analysis of variance and a Bonferoni's test for significance. P<0.05 was the accepted level of significance."}, "[2]": {"test_system": "New Zealand white rabbits", "assay": "Pupil diameter / mydriasis after topical application to the rabbit eye", "format": "in vivo", "details": "for Pupil Diameter: mean ± S.E.", "method": "as §1, §2, §3\nPupil diameter was measured visually at the point of the greatest horizontal diameter with a transparent millimeter ruler. All measurements were made under the identical ambient lighting conditions.\nas §4"}, "Swiss-Webster mice [3]": {"test_system": "Swiss-Webster mice", "assay": "Locomotor stimulant and depressant effects in mice", "details": "i.p.", "method": "Male Swiss-Webster mice (HSD ND4, Harlan Sprague Dawley, Houston, Tex.) aged 2–3 months were used in these studies. Each dose group consisted of 8 mice. The mice were housed 2 to 4 per cage in 30.4×22.9×15.2 cm clear polycarbonate cages with food and water available ad libitum for at least one week prior to locomotor activity testing. The colony was maintained at 23±1° C., on a normal light-dark cycle beginning at 0700 hr. All testing took place during the light portion of the light-dark cycle.\nHorizontal (forward movement) locomotor activity was measured using a standardized, optical activity monitoring system [Model KXYZCM (16), Omnitech Electronics, Columbus, Ohio]. Activity was monitored in forty 40.5×40.5×30.5 cm clear acrylic chambers that where housed in sets of two within larger sound-attenuating chambers. A panel of 16 infrared beams and corresponding photodetectors were spaced 2 cm apart along the sides and 2.4 cm above the floor of each activity chamber. A 7.5-W incandescent light above each chamber provided dim illumination via a rheostat set to 20% of full scale. Fans provided an 80-dB ambient noise level within the chamber.\nTriprolidine HCl was obtained from Research Biochemicals International, (Natick, Mass.).\nLocomotor stimulant effects. […] (+)-Amphetamine was used as a positive control. The total horizontal distance traversed (cm) was recorded at 10 minute intervals for a 2-hour session. Separate groups of 8 mice were assigned to each dose or saline group, and dose-effect testing continued for each compound until maximal stimulant or depressant effects could be estimated. A separate control group was tested along with each compound.\nUsing TableCurve 2D v2.03 (Jandel Scientific), the mean average total distance traversed (cm/10 min) for that period was fit to a 3-parameter logistic peak function of log10 dose (with the constant set to the mean of the saline group), and the maximum effect estimated from the resulting curve. The […] (dose producing ½ maximal stimulant activity) was estimated from a linear regression against log10 dose of the ascending portion of the dose-effect curve. The stimulant efficacy was the peak effect of the compound (cm/10 min) as estimated from the logistic peak function, minus the mean control distance traveled (cm/10 min), and was expressed for each stimulant compound as a ratio to the stimulant efficacy determined for (+)-amphetamine.\nThe mean average total distance traversed (cm/10 min) for that period were fit to a linear function of log10 dose of the descending portion of the dose-effect curve. […] Efficacy was the ratio of maximal depressant effect to maximum possible depression for each compound (mean average total distance of the control group minus the lowest mean total distance, expressed as a ratio to the control group total distance).\n(§5) Statistical analysis. Time course data for each compound were considered in 2-way analyses of variance with dose as a between-group and time as a within-group factor. The dose-effect data were considered in 1-way analyses of variance, and planned individual comparisons were conduced between each dose and the saline control group. Interaction studies were considered in 2-way analyses of variance, with Pretreatment and Test dose as the factors."}, "Swiss-Webster mice [4]": {"test_system": "Swiss-Webster mice", "assay": "H1 receptor antagonist (triprolidine) interaction study, locomotor activity in mice", "details": "mice pretreated with triprolidine 20 min before the test compound", "method": "H1 receptor antagonist interaction studies. […] The mice were immediately placed in the activity testing chamber for a 2-h session. Doses of the test compound were selected from the ascending or descending time of the dose-effect curve determined from the compound-alone studies. Eight mice were tested for each triprolidine/test compound combination.\nas §5"}, "[5]": {"details": "1% topical, drug treated eye (T), 0.5 hr"}, "[6]": {"details": "1% topical, drug treated eye (T), 1 hr"}, "[7]": {"details": "1% topical, drug treated eye (T), 3 hr"}, "[8]": {"details": "1% topical, drug treated eye (T), 5 hr"}, "[9]": {"details": "1% topical, drug treated eye (T), −1 hr (pre-treatment)"}, "[10]": {"details": "1% topical, untreated contralateral eye (U), 0.5 hr"}, "[11]": {"details": "1% topical, untreated contralateral eye (U), 1 hr"}, "[12]": {"details": "1% topical, untreated contralateral eye (U), 3 hr"}, "[13]": {"details": "1% topical, untreated contralateral eye (U), 5 hr"}, "[14]": {"details": "1% topical, untreated contralateral eye (U), −1 hr (pre-treatment)"}, "[15]": {"details": "2% topical, drug treated eye (T), 0.5 hr"}, "[16]": {"details": "2% topical, drug treated eye (T), 1 hr"}, "[17]": {"details": "2% topical, drug treated eye (T), 3 hr"}, "[18]": {"details": "2% topical, drug treated eye (T), 5 hr"}, "[19]": {"details": "2% topical, drug treated eye (T), −0.5 hr (pre-treatment)"}, "[20]": {"details": "2% topical, drug treated eye (T), −1 hr (pre-treatment)"}, "[21]": {"details": "2% topical, untreated contralateral eye (U), 0.5 hr"}, "[22]": {"details": "2% topical, untreated contralateral eye (U), 1 hr"}, "[23]": {"details": "2% topical, untreated contralateral eye (U), 3 hr"}, "[24]": {"details": "2% topical, untreated contralateral eye (U), 5 hr"}, "[25]": {"details": "2% topical, untreated contralateral eye (U), −0.5 hr (pre-treatment)"}, "[26]": {"details": "2% topical, untreated contralateral eye (U), −1 hr (pre-treatment)"}}}
{"substance": "(+)-norpseudoephedrine", "values": [{"measurement": "effect on IOP (result in words)", "setting": "[1]; 1% or 2% topical, rabbit", "value": "accompanying increase in IOP"}, {"measurement": "IOP", "setting": "[1]; [5]", "value": "19 ± 2.4", "unit": "mmHg"}, {"measurement": "IOP", "setting": "[1]; [6]", "value": "18 ± 1.8", "unit": "mmHg"}, {"measurement": "IOP", "setting": "[1]; [7]", "value": "18 ± 2.0", "unit": "mmHg"}, {"measurement": "IOP", "setting": "[1]; [8]", "value": "17 ± 2.8", "unit": "mmHg"}, {"measurement": "IOP", "setting": "[1]; [9]", "value": "18 ± 1.0", "unit": "mmHg"}, {"measurement": "IOP", "setting": "[1]; [10]", "value": "24 ± 1.8", "unit": "mmHg"}, {"measurement": "IOP", "setting": "[1]; [11]", "value": "19 ± 1.8", "unit": "mmHg"}, {"measurement": "IOP", "setting": "[1]; [12]", "value": "18 ± 2.8", "unit": "mmHg"}, {"measurement": "IOP", "setting": "[1]; [13]", "value": "17 ± 2.8", "unit": "mmHg"}, {"measurement": "IOP", "setting": "[1]; [14]", "value": "20 ± 1.7", "unit": "mmHg"}, {"measurement": "IOP", "setting": "[1]; [15]", "value": "18 ± 2.5", "unit": "mmHg"}, {"measurement": "IOP", "setting": "[1]; [16]", "value": "20 ± 2.3", "unit": "mmHg"}, {"measurement": "IOP", "setting": "[1]; [17]", "value": "20 ± 2.0", "unit": "mmHg"}, {"measurement": "IOP", "setting": "[1]; [18]", "value": "21 ± 2.8", "unit": "mmHg"}, {"measurement": "IOP", "setting": "[1]; [19]", "value": "16 ± 2.5", "unit": "mmHg"}, {"measurement": "IOP", "setting": "[1]; [20]", "value": "19 ± 2.4", "unit": "mmHg"}, {"measurement": "IOP", "setting": "[1]; [21]", "value": "22 ± 2.0", "unit": "mmHg"}, {"measurement": "IOP", "setting": "[1]; [22]", "value": "23 ± 2.1", "unit": "mmHg"}, {"measurement": "IOP", "setting": "[1]; [23]", "value": "22 ± 2.7", "unit": "mmHg"}, {"measurement": "IOP", "setting": "[1]; [24]", "value": "24 ± 2.3", "unit": "mmHg"}, {"measurement": "IOP", "setting": "[1]; [25]", "value": "19 ± 2.5", "unit": "mmHg"}, {"measurement": "IOP", "setting": "[1]; [26]", "value": "18 ± 2.6", "unit": "mmHg"}, {"measurement": "mydriasis / pupil diameter (result in words)", "setting": "[2]; 1% or 2% topical, rabbit", "value": "significant mydriasis"}, {"measurement": "Mydriatic Responses, TREATED EYE", "setting": "[2]; 1% topical", "value": "++ (++ = 2–4 mm change)"}, {"measurement": "Mydriatic Responses, UNTREATED EYE", "setting": "[2]; 1% topical", "value": "+ (+ = 0–2 mm change)"}, {"measurement": "Pupil Diameter", "setting": "[2]; [5]", "value": "8 ± 0.2", "unit": "mm"}, {"measurement": "Pupil Diameter", "setting": "[2]; [6]", "value": "8 ± 0.2", "unit": "mm"}, {"measurement": "Pupil Diameter", "setting": "[2]; [7]", "value": "8 ± 0.2", "unit": "mm"}, {"measurement": "Pupil Diameter", "setting": "[2]; [8]", "value": "8 ± 0.2", "unit": "mm"}, {"measurement": "Pupil Diameter", "setting": "[2]; 1% topical, drug treated eye (T), −0.5 hr (pre-treatment)", "value": "6 ± 0.2", "unit": "mm"}, {"measurement": "Pupil Diameter", "setting": "[2]; [9]", "value": "6 ± 0.2", "unit": "mm"}, {"measurement": "Pupil Diameter", "setting": "[2]; [10]", "value": "8 ± 0.2", "unit": "mm"}, {"measurement": "Pupil Diameter", "setting": "[2]; [11]", "value": "8 ± 0.2", "unit": "mm"}, {"measurement": "Pupil Diameter", "setting": "[2]; [12]", "value": "8 ± 0.2", "unit": "mm"}, {"measurement": "Pupil Diameter", "setting": "[2]; [13]", "value": "8 ± 0.2", "unit": "mm"}, {"measurement": "Pupil Diameter", "setting": "[2]; 1% topical, untreated contralateral eye (U), −0.5 hr (pre-treatment)", "value": "6 ± 0.2", "unit": "mm"}, {"measurement": "Pupil Diameter", "setting": "[2]; [14]", "value": "6 ± 0.2", "unit": "mm"}, {"measurement": "Mydriatic Responses, TREATED EYE", "setting": "[2]; 2% topical", "value": "++ (++ = 2–4 mm change)"}, {"measurement": "Mydriatic Responses, UNTREATED EYE", "setting": "[2]; 2% topical", "value": "++ (++ = 2–4 mm change)"}, {"measurement": "Pupil Diameter", "setting": "[2]; [15]", "value": "9 ± 0.2", "unit": "mm"}, {"measurement": "Pupil Diameter", "setting": "[2]; [16]", "value": "9 ± 0.2", "unit": "mm"}, {"measurement": "Pupil Diameter", "setting": "[2]; [17]", "value": "9 ± 0.2", "unit": "mm"}, {"measurement": "Pupil Diameter", "setting": "[2]; [18]", "value": "9 ± 0.2", "unit": "mm"}, {"measurement": "Pupil Diameter", "setting": "[2]; [19]", "value": "6 ± 0.2", "unit": "mm"}, {"measurement": "Pupil Diameter", "setting": "[2]; [20]", "value": "6 ± 0.2", "unit": "mm"}, {"measurement": "Pupil Diameter", "setting": "[2]; [21]", "value": "9 ± 0.2", "unit": "mm"}, {"measurement": "Pupil Diameter", "setting": "[2]; [22]", "value": "9 ± 0.2", "unit": "mm"}, {"measurement": "Pupil Diameter", "setting": "[2]; [23]", "value": "9 ± 0.2", "unit": "mm"}, {"measurement": "Pupil Diameter", "setting": "[2]; [24]", "value": "9 ± 0.2", "unit": "mm"}, {"measurement": "Pupil Diameter", "setting": "[2]; [25]", "value": "6 ± 0.2", "unit": "mm"}, {"measurement": "Pupil Diameter", "setting": "[2]; [26]", "value": "6 ± 0.2", "unit": "mm"}, {"measurement": "Depression Time: 30-min period following injection in which the maximal depression occurred", "setting": "Swiss-Webster mice [3]", "value": "10 to 40", "unit": "min"}, {"measurement": "Stimulation Time: 30-min period following injection in which the maximal stimulant effect occurred", "setting": "Swiss-Webster mice [3]", "value": "30 to 60", "unit": "min"}, {"measurement": "Stimulation Potency: dose resulting in ½ the maximal stimulant effect (ID50)", "setting": "Swiss-Webster mice [3]; — denotes absence of significant effect", "value": 12.2, "unit": "mg/kg"}, {"measurement": "effect of triprolidine pretreatment on stimulant or depressant effects", "setting": "Swiss-Webster mice [4]", "value": "failed to show significant modification of stimulant or depressant effects"}]}
